Measurements as given in patent US20050112204A1, “Pharmaceutical formulations” (priority 2003, published 2005).
Values after ≈ are worked out from the molar mass of the structure shown.

Legend:
Assay type in all cases: physicochemical
[1] = aqueous solubility of voriconazole (previously measured data); settings: water, aqueous buffer; pH 7; 22° C.
[2] = stability of voriconazole in water; settings: an inactive enantiomer is formed from recombination of the retro-aldol products of hydrolysis
[3] = visual solubility of voriconazole in water and aqueous poloxamer F127 solutions (Example 2); settings: for visual solubility in water: ambient conditions; for solubility: aqueous poloxamer F127 solution, aqueous with cosolvent or surfactant or cyclodextrin, thermodynamic from solid, read-out: soluble up to
Experimental: Voriconazole aqueous solutions of 0.5 and 1 mg/ml were prepared in water (20 ml). Corresponding aqueous solutions of 2, 3 and 4 mg/ml were prepared in aqueous poloxamer solutions (20 ml), as follows: The samples were prepared in 50 ml glass vials, and sonicated in an ultrasonic bath for 30 minutes. The solutions were allowed to cool, then visually assessed immediately and after 18 hours. The solubilization factor on the y-axis is a code for the level of solubility visually observed.

solubility [1]: 610 µg/mL (≈ 1.75 mM) | stability in water [2]: not stable in water | visual solubility in water ([3]; 0.5 mg/ml in water): virtually complete solubility | visual solubility in water ([3]; 1 mg/ml in water): clearly insoluble | increase in solubility in comparison with water alone ([3]; 10% F127 solution): three to four fold | increase in solubility in comparison with water alone ([3]; 15% F127 solution): five to six fold | solubility ([3]; in 10% F127 solution): ≤ 2000 µg/mL | solubility ([3]; in 15% F127 solution): ≤ 3000 µg/mL
SMILES: C[C@@H](c1ncncc1F)[C@](O)(Cn1cncn1)c1ccc(F)cc1F [voriconazole, (2R,3S)-2-(2,4-Difluorophenyl)-3-(5-fluoro-4-pyrimidinyl)-1-(1H-1,2,4-triazol-1-yl)-butan-2-ol]
